Assay results: US20110319484A1, “NEUROPROTECTIVE COMPOUNDS” (Parque Tecnologico de Ciencias de la Salud, priority 2009, published 2011)

Tested on: mice
Test: Antiepileptic effect against kainate administered to mice
Type: in vivo, mice (FVB/NHan)
Settings: KA 25 mg/kg i.p.
Source text: It is known that the administration of an excitotoxic substance to animals induces, in some cases, epileptic seizures and convulsions. As a result the inventors decided to investigate if the neuroprotective effect of (1S,3R,7S,8S,8aR)-1,2,3,7,8,8a-hexahydro-3,7-dimethyl-8-[2-[(2R,4R)-tetrahydro-4-hydroxy-6-oxo-2H-pyran-2-yl]ethyl-1-naphthalenyl 2,2-dimethylpropanoate (NST0005) was accompanied by an antiepileptic effect caused by an excitotoxic substance.
All the animals included during the experimental process were 12-week old males of the FVB/NHan strain. The experiments were carried out strictly following the Guidance on the Operation of Animals (Scientific Procedures, Act. 1986). The animals had their respective quarantine period and were treated with maximum precaution to minimize possible contaminations for inoculations and handling.
The animals were inoculated intraperitoneally with 25 mg/kg of kainate (KA) dissolved in PBS. Nine animals were pretreated at 24 and 0.5 hours before the inoculation with KA by means of intraperitoneal injection with PBS (PBS+KA administration regimen) and 9 were pretreated at 24 and 0.5 hours before the inoculation with KA by means of intraperitoneal injection with NST0005 at a dose of 50 mg/kg (NST0005+KA administration regimen). After the inoculation, the animals were individually housed in trays to monitor them. The maximum epilepsy level of the animals according to Racine's scale was recorded during the observation every ten minutes and for at least 120 minutes post-inoculation (m.p.i.).
Comparative studies of the epileptogenic phenomena between the treatment with PBS (PBS+KA) and with NST0005 (NST0005+KA) were subsequently conducted, the data of which are shown in Table 1.

[1] = NST0005 50 mg/kg i.p. at 24 and 0.5 h before KA, n=9

In the case of `C[C@H]1C=C2C=C[C@H](C)[C@H](CC[C@@H]3C[C@@H](O)CC(=O)O3)[C@H]2[C@@H](OC(=O)C(C)(C)C)C1` [NST0005], the “Animals with convulsions (%)” value [1] is reported as 33.3%, the “Animals with status epilepticus (%)” value [1] is reported as 22.2% and the “Mortality (%)” value [1] is reported as 11.1%. For the same molecule, the “epilepsy level in Racine's scale reached” value (NST0005 50 mg/kg i.p. pretreatment, at least 120 min observation) was < 3 and the “latency (time of onset of the first convulsions)” value (NST0005 50 mg/kg i.p. pretreatment, mean±SEM) was 108.9 ± 5.9 min.
